The target in one test is T1, RORβ (Homo sapiens, UniProt Q92753).
T1 construct: expressed in transfected cells; host or cells: HEK293
T1 sequence (Q92753 1-459 isoform Q92753-1): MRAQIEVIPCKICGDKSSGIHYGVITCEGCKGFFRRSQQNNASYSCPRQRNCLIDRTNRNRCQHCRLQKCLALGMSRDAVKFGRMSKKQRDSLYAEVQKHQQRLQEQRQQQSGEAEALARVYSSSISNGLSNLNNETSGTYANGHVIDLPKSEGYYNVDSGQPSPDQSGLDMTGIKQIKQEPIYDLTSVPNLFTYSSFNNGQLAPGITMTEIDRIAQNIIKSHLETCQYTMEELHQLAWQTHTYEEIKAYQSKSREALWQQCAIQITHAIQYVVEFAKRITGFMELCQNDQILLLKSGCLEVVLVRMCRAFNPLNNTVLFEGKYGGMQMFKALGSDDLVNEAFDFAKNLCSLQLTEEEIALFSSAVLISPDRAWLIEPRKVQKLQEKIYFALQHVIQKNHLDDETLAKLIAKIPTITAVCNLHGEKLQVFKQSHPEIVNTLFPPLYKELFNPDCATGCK
To be noted: reporter gene assay, HEK293; read-out: RORβ inverse agonistic activity (IC50); cited from earlier work.

A further test has as its target T2, GR (Homo sapiens, UniProt P04150).
T2 construct: expressed in transfected cells; host or cells: HEK293
T2 sequence (P04150 1-777): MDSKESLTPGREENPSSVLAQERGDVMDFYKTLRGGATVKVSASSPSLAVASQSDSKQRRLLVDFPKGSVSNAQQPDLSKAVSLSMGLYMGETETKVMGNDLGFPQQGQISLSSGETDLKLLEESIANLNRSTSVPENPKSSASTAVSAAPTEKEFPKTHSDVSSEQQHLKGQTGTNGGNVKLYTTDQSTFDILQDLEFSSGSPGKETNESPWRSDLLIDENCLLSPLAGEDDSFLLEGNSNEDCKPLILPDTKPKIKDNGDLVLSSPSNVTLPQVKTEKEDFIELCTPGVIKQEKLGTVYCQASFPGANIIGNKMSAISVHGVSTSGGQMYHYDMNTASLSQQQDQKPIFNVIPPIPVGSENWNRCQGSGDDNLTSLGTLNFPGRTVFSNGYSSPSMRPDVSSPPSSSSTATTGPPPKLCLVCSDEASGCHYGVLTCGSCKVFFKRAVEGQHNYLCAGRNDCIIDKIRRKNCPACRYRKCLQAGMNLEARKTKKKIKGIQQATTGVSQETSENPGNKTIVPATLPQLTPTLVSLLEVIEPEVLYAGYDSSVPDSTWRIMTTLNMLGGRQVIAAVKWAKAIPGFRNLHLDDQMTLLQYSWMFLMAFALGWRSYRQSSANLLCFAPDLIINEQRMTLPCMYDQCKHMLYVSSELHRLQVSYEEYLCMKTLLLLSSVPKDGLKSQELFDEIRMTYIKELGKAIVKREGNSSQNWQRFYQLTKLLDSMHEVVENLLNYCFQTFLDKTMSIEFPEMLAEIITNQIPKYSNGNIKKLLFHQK
Put plainly: GR reporter gene assay in HEK293. Format: cell-based. The settings on record: reporter gene assay, HEK293; agonist dexamethasone 1 nM; read-out: GR antagonistic activity (IC50).

The test system of test [1] is LNCaP cells (T877A mutation in the AR LBD). Put plainly: PSA level (ELISA) in LNCaP cell line. The settings on record: Homo sapiens, LNCaP, dihydrotestosterone 10 nM, 48 h, ± SEM. Format: cell-based, human. An excerpt:
Chronic administration of AR antagonists often leads to the development of resistance. […] In contrast, another AR antagonist, enzalutamide, was reported to antagonize AR mutant T877A [23]. Thus, development of a novel chemical class of AR antagonists, different from flutamide analogs seems an attractive approach for the treatment of AR antagonist-resistant cancer, providing further motivation to evaluate steroid surrogates. Therefore, we investigated the antiandrogenic activity of several potent AR antagonists by means of PSA (prostate-specific antigen, an AR-regulated gene) ELISA (enzyme-linked immunosorbent assay) in human prostate cancer cell line LNCaP, which has T877A mutation in the AR LBD.
The human prostate cancer cell line LNCaP (ECACC, London, UK) was routinely maintained in RPMI1640 containing 10% (v/v) fetal bovine serum, and penicillin/streptomycin at 37 °C in a humidified atmosphere of 5% CO2 in air. Cells were cultured in RPMI1640 without phenol red containing 10% (v/v) charcoal-stripped fetal bovine serum, and penicillin/streptomycin at 37 °C in a humidified atmosphere of 5% CO2 in air for 3 days. Then cells were plated in 96-well plates at 1 × 10^4 cells/well and incubated overnight. On the next day, cells were treated with fresh media containing test compound plus dihydrotestosterone (final concentration 10 nM), and incubated for 48 h. Then, PSA levels were measured in the culture supernatants, after 100-fold dilution with the medium, using ELISA (Immunospec Corp., CA, USA Free prostate-specific antigen cat. #E29-212) according to the manufacturer’s instructions. All data points were carried out twice in triplicate.

A further test concerns the target T3, PR (Homo sapiens, UniProt P06401).
T3 sequence (P06401 1-933): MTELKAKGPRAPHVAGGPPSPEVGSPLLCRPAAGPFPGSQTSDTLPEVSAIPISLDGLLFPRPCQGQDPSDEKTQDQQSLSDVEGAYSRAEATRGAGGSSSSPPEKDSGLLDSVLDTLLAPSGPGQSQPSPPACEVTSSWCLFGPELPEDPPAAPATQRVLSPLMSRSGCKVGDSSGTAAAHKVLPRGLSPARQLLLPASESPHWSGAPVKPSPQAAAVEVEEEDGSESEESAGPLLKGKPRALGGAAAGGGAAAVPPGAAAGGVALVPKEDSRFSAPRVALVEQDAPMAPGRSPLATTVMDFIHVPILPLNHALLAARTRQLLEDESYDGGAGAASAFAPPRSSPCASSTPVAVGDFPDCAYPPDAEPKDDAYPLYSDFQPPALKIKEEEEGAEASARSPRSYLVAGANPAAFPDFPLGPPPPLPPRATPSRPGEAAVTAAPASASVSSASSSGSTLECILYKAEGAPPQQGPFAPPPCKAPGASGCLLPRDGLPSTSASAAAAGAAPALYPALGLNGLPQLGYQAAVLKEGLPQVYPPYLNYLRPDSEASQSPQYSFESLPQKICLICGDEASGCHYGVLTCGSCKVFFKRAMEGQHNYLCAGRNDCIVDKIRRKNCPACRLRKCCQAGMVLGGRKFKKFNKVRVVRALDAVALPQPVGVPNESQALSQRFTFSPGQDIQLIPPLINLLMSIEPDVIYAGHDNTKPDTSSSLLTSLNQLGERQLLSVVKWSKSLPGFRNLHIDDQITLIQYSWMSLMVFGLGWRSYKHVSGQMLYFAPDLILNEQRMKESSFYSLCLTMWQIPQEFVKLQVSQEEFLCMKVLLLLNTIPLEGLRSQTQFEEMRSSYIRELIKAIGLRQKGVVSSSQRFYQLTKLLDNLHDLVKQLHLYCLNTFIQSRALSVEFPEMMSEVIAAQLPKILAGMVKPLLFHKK
To be noted: alkaline phosphatase, T47D cells, progesterone 1 nM; read-out: PR antagonistic activity (IC50); cited from earlier work.

This passage reports IC50 results from publication PMC6073568, “Efficient Lead Finding, Activity Enhancement and Preliminary Selectivity Control of Nuclear Receptor Ligands Bearing a Phenanthridinone Skeleton” (International Journal of Molecular Sciences, 2018).

As for `CCCCn1c(=O)c2ccccc2c2cc(C(O)(C(F)(F)F)C(F)(F)F)c3c(c21)OCO3` [Compound 26], the concentration for half-maximal inhibition (IC50) at RORβ was over 20 µM; at GR, 0.76 µM; in test [1], 0.56 ± 0.26 µM; at PR it was 0.23 µM.

Regarding `O=c1[nH]c2ccc(C(O)(C(F)(F)F)C(F)(F)F)cc2c2ccccc12` [Compound 1], the IC50 on RORβ was over 20 µM; on GR, over 20 µM; in test [1], over 10 µM.

For the molecule `O=c1[nH]c2ccc(C(O)(C(F)(F)F)C(F)(F)F)cc2c2cccc(F)c12` [Compound 33], the IC50 on RORβ was 9.8 µM; on GR, 9.8 µM; in test [1], 0.19 ± 0.095 µM.
